Legend:
382 unique human kinases [1] = molecular target: T1, 382 unique human kinases (Homo sapiens, UniProt P07949, S904F); assay: biochemical; format: biochemical; conditions: RET (S904F), 10 uM; for remaining activity at 10 µM: read-out: % Enzyme Activity (relative to DMSO controls)
T1 construct: purchased Reaction Biology (HotSpot contract assay)

382 unique human kinases [2] = molecular target: T2, 382 unique human kinases (Homo sapiens, UniProt Q02763, P883A); assay: biochemical; format: biochemical; conditions: TIE2 (P883A), 10 uM; for remaining activity at 10 µM: read-out: % Enzyme Activity (relative to DMSO controls)
T2 construct: purchased Reaction Biology (HotSpot contract assay)
T2 sequence (Q02763 23-1124 P883A): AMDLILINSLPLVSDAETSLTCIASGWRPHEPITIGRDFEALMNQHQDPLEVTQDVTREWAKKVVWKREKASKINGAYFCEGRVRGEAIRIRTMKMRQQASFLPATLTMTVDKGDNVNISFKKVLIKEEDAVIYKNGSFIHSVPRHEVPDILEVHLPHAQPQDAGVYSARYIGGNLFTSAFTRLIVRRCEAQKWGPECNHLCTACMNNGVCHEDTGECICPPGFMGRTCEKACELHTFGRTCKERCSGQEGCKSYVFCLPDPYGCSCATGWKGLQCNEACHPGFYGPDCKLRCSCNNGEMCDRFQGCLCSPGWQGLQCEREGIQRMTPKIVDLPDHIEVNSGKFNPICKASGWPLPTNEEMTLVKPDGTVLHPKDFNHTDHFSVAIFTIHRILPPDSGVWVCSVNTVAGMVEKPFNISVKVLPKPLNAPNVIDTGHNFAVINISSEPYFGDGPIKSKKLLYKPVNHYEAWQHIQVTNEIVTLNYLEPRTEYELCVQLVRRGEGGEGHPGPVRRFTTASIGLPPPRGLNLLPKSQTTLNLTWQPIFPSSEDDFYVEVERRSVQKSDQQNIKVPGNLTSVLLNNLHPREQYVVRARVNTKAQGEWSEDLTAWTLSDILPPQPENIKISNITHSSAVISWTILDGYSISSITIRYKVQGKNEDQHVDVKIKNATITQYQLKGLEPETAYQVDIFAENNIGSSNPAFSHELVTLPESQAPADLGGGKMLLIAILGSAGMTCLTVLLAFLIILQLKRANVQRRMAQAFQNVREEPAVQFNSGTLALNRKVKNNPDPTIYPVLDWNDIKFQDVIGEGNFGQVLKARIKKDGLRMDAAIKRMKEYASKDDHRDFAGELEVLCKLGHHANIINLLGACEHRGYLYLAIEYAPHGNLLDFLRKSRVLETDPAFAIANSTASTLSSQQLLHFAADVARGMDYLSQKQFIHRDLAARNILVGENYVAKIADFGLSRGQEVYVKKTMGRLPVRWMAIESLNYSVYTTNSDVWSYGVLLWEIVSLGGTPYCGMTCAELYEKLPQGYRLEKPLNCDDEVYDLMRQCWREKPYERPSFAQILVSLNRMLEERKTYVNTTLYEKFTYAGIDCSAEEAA

382 unique human kinases [3] = molecular target: T3, 382 unique human kinases (Homo sapiens, UniProt Q15303); assay: biochemical; format: biochemical; conditions: kinase ERBB4/HER4, compound 10 uM; for remaining activity at 10 µM: read-out: % Enzyme Activity (relative to DMSO controls)
T3 construct: purchased Reaction Biology (HotSpot contract assay)
T3 sequence (Q15303 26-1308): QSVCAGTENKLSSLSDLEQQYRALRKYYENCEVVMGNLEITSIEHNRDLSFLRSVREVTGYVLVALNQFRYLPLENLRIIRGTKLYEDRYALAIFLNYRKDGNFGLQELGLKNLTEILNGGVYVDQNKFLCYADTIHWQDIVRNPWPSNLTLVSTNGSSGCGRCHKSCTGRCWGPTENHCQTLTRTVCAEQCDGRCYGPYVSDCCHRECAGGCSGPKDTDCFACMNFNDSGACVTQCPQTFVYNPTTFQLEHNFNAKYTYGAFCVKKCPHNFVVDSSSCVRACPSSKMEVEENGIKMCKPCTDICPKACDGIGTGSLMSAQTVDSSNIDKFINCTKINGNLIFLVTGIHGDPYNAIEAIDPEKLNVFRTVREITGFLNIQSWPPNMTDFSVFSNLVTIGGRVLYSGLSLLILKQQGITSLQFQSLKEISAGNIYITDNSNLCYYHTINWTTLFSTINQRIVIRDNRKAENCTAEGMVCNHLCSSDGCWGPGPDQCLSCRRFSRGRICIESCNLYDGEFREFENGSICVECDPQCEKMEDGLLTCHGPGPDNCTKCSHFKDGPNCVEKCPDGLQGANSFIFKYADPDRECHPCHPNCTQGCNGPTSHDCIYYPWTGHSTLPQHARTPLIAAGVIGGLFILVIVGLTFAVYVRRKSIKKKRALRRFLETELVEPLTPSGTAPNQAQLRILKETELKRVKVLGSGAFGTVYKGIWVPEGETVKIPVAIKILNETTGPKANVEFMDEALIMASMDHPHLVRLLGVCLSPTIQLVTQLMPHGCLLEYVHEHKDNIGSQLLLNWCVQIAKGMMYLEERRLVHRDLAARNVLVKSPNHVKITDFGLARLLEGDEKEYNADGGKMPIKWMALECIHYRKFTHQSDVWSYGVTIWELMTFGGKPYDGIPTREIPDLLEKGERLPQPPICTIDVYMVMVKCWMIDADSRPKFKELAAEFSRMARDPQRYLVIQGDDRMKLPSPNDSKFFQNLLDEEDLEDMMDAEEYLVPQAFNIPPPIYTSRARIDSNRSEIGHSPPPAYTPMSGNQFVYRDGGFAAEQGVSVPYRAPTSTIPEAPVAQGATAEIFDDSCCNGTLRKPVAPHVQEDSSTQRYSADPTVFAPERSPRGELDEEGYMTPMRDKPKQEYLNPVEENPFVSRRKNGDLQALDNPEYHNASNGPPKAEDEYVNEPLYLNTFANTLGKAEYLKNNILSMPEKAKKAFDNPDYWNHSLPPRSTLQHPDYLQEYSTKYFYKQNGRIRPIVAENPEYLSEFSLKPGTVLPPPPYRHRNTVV

FGR = molecular target: T4, FGR (Homo sapiens, UniProt P09769); assay: HotSpot in vitro kinase radiometric assay; format: biochemical; conditions: for inhibition at 10 µM: read-out: % inhibition at 10 uM: FGR, Fig 6C median ± standard deviation (n = 2)
T4 construct: purchased Reaction Biology (HotSpot contract assay)
T4 sequence (P09769 whole entry): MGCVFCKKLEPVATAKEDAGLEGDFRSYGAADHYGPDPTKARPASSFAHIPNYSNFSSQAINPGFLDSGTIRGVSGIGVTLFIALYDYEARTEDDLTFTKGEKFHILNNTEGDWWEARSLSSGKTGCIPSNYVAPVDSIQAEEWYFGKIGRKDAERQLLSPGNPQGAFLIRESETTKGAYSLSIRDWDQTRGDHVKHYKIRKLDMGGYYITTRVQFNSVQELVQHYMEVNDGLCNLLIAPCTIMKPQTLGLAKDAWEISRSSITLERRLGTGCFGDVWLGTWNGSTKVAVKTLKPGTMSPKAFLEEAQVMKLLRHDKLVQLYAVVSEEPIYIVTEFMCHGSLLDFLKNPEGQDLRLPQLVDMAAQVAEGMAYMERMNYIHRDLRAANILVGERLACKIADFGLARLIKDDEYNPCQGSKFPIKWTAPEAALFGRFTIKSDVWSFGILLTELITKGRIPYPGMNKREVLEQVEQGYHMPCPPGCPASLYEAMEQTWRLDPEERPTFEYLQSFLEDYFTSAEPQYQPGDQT

PASK = molecular target: T5, PASK (Homo sapiens, UniProt Q96RG2); assay: HotSpot in vitro kinase radiometric assay; format: biochemical; conditions: for inhibition at 10 µM: read-out: % inhibition at 10 uM: PASK, Fig 6C median ± standard deviation (n = 2)
T5 construct: purchased Reaction Biology (HotSpot contract assay)
T5 sequence (Q96RG2 whole entry): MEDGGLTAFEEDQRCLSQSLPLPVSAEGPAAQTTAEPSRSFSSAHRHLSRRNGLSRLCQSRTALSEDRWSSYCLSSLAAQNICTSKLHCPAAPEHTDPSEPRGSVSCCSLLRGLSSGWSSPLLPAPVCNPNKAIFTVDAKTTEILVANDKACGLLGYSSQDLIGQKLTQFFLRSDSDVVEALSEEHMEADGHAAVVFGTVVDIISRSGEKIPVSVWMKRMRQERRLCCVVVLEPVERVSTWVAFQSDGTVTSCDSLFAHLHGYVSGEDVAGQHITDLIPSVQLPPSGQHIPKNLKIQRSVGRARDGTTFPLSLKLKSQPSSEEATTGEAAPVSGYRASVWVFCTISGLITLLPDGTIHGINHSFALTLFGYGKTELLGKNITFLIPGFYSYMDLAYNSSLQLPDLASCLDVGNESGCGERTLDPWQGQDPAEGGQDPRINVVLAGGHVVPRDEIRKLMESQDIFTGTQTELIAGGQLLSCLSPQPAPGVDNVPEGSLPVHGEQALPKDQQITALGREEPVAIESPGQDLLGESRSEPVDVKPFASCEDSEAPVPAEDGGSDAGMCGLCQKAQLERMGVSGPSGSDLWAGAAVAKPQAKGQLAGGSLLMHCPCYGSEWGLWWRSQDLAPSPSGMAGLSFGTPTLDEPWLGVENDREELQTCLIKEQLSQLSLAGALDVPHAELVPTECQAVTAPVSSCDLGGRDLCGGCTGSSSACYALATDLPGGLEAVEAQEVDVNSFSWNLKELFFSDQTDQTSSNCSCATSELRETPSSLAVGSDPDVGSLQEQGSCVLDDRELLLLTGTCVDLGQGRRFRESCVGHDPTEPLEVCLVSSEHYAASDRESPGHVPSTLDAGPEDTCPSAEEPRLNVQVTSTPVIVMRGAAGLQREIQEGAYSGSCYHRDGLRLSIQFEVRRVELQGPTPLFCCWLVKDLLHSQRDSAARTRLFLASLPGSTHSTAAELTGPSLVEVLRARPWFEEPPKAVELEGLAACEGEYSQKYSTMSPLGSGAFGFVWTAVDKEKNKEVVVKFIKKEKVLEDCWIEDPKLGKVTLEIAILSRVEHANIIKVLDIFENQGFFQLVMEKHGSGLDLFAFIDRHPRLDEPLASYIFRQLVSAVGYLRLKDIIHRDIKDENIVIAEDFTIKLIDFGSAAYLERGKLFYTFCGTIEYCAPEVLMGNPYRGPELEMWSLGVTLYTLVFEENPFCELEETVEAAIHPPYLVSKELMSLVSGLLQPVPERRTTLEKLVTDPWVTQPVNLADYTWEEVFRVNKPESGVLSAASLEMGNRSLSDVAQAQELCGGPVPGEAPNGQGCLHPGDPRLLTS
Summary of the method: (§1)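 Off-target screen in a radioisotope catalytic assay: test compounds incubated with each kinase, its substrate, cofactors and 33P- or 32P-labelled ɣ-ATP. Filters retaining labelled product gave the signal.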

TRKA = molecular target: T6, TRKA (Homo sapiens, UniProt P04629); assay: HotSpot in vitro kinase radiometric assay; format: biochemical; conditions: for inhibition at 10 µM: read-out: % inhibition at 10 uM: TRKA, Fig 6C median ± standard deviation (n = 2)
T6 construct: purchased Reaction Biology (HotSpot contract assay)
Summary of the method: as §1

LCK = molecular target: T7, LCK (Homo sapiens, UniProt P06239); assay: HotSpot in vitro kinase radiometric assay; format: biochemical; conditions: for inhibition at 10 µM: read-out: % inhibition at 10 uM: LCK, Fig 6C median ± standard deviation (n = 2)
T7 construct: purchased Reaction Biology (HotSpot contract assay)
T7 sequence (P06239 whole entry): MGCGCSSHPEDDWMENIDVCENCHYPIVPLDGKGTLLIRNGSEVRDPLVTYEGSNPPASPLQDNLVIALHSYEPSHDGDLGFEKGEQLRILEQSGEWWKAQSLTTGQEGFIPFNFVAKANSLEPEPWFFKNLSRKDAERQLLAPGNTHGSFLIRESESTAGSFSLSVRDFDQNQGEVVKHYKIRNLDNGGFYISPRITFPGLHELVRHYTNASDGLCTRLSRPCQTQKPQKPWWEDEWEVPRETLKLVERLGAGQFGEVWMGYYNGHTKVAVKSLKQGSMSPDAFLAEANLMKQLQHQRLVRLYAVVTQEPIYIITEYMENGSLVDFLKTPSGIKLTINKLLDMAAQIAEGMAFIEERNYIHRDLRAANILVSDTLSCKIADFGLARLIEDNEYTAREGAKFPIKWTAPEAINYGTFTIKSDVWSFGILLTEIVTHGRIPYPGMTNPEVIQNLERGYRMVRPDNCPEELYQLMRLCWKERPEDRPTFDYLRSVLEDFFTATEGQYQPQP

YES/YES1 = molecular target: T8, YES/YES1 (Homo sapiens, UniProt P07947); assay: HotSpot in vitro kinase radiometric assay; format: biochemical; conditions: for inhibition at 10 µM: read-out: % inhibition at 10 uM: YES, Fig 6C median ± standard deviation (n = 2)
T8 construct: purchased Reaction Biology (HotSpot contract assay)

382 unique human kinases [4] = molecular target: T9, 382 unique human kinases (Homo sapiens, UniProt O95835); assay: biochemical; format: biochemical; conditions: LATS1, 10 uM; for remaining activity at 10 µM: read-out: % Enzyme Activity (relative to DMSO controls)
T9 construct: purchased Reaction Biology (HotSpot contract assay)
T9 sequence (O95835 1-1130): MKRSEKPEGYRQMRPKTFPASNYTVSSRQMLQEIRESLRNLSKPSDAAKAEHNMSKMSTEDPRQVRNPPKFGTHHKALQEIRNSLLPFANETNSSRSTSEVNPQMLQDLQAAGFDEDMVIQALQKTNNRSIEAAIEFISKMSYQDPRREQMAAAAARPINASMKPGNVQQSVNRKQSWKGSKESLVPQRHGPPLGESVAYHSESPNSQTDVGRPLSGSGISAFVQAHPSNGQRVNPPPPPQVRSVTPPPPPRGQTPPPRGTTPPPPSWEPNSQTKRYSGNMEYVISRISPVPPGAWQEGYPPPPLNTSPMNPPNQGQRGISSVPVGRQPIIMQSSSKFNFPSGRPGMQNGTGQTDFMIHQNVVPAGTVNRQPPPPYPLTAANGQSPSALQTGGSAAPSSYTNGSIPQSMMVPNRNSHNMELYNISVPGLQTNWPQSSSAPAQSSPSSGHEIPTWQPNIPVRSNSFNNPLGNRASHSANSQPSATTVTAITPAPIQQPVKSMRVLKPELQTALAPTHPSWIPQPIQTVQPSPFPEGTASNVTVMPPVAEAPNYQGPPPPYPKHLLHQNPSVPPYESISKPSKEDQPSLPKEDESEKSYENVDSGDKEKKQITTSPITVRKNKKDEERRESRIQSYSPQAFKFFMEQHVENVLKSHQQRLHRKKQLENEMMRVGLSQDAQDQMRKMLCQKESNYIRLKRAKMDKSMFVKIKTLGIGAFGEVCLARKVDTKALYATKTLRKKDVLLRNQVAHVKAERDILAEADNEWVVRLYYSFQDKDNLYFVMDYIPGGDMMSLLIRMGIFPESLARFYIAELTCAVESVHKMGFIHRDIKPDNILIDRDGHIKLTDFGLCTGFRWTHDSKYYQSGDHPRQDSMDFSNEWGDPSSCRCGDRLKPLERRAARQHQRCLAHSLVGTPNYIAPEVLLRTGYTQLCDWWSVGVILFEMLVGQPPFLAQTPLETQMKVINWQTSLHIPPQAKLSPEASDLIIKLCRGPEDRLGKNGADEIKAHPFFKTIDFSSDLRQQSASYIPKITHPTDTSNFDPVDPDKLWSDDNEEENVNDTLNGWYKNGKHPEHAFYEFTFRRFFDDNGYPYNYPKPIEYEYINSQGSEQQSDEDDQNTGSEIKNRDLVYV

382 unique human kinases [5] = molecular target: T10, 382 unique human kinases (Homo sapiens, UniProt P16234, T674I); assay: biochemical; format: biochemical; conditions: PDGFRa (T674I), [ATP] 20 µM, compound 10 uM; for remaining activity at 10 µM: read-out: % Enzyme Activity (relative to DMSO controls)
T10 construct: purchased Reaction Biology (HotSpot contract assay)

382 unique human kinases [6] = molecular target: T11, 382 unique human kinases (Homo sapiens, UniProt P46734); assay: biochemical; format: biochemical; conditions: MEK3, 10 uM; for remaining activity at 10 µM: read-out: % Enzyme Activity (relative to DMSO controls)
T11 construct: purchased Reaction Biology (HotSpot contract assay)
T11 sequence (P46734 1-347): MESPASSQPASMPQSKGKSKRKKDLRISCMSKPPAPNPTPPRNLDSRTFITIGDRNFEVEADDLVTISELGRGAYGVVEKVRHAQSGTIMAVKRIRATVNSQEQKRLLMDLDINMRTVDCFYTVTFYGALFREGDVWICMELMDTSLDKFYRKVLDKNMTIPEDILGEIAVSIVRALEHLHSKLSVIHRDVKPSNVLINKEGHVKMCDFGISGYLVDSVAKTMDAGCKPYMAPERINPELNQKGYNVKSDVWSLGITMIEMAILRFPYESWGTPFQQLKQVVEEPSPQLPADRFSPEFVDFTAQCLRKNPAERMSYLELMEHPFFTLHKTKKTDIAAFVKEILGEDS

TRAP1 = system: TRAP1; parameters: method as in ChEMBL23 (accessed: 23/08/2018); conditions: average of reported values; ref ChEMBL23 (accessed: 23/08/2018); cited from earlier work

| SMILES | remaining activity at 10 µM (382 unique human kinases [1]) | remaining activity at 10 µM (382 unique human kinases [2]) | remaining activity at 10 µM (382 unique human kinases [3]) | inhibition at 10 µM (FGR) | inhibition at 10 µM (PASK) | inhibition at 10 µM (TRKA) | inhibition at 10 µM (LCK) | inhibition at 10 µM (YES/YES1) | remaining activity at 10 µM (382 unique human kinases [4]) | remaining activity at 10 µM (382 unique human kinases [5]) | remaining activity at 10 µM (382 unique human kinases [6]) | pActivity, TRAP1 (TRAP1) | also measured |
| --- | --- | --- | --- | --- | --- | --- | --- | --- | --- | --- | --- | --- | --- |
| CC(C)c1cc(-c2n[nH]c(=O)n2-c2ccc3c(ccn3C)c2)c(O)cc1O [Ganetespib (STA9090)] | 61.6% | 74.5% | 88.8% |  |  |  |  |  |  |  |  |  |  |
| CCNC(=O)c1noc(-c2cc(C(C)C)c(O)cc2O)c1-c1ccc(CN2CCOCC2)cc1 [Luminespib] |  |  |  | 66 ± 1% | 1% | -1% | 40 ± 2% | 49 ± 2% | 98.6% | 91.6% | 96.8% | 7.67 | % Enzyme Activity (relative to DMSO controls) (382 unique human kinases [4]): 98.44%; % Enzyme Activity (relative to DMSO controls) (382 unique human kinases [5]): 89.59%; % Enzyme Activity (relative to DMSO controls) (382 unique human kinases [6]): 95.40% |
| CCNC(=O)c1noc(-c2cc(C(C)C)c(O)cc2O)c1-c1ccc(CN2CCOCC2)cc1 [Luminespib (AUY-922)] | 102% | 104% | 92.8% |  |  |  |  |  |  |  |  |  | % Enzyme Activity (relative to DMSO controls) (382 unique human kinases [1]): 101.49%; % Enzyme Activity (relative to DMSO controls) (382 unique human kinases [2]): 100.72%; % Enzyme Activity (relative to DMSO controls) (382 unique human kinases [3]): 92.70% |
| CCNC(=O)c1noc(-c2cc(Cl)c(O)cc2O)c1-c1ccc(OC)cc1 [VER-50589] |  |  |  | -7 ± 4% | -6 ± 5% | 2 ± 2% | -6 ± 6% | 1 ± 4% |  |  |  |  | % Enzyme Activity (relative to DMSO controls) (FGR; FGR, 10uM, ATP 50 uM, Data 1, Data 2): 109.55%; remaining activity at 10 µM (FGR; FGR, 10uM, ATP 50 uM, Data 1, Data 2, read-out: % Enzyme Activity (relative to DMSO controls)): 104%; % Enzyme Activity (relative to DMSO controls) (PASK; PASK, 10uM, ATP 50 uM, Data 1, Data 2): 102.75%; remaining activity at 10 µM (PASK; PASK, 10uM, ATP 50 uM, Data 1, Data 2, read-out: % Enzyme Activity (relative to DMSO controls)): 109%; % Enzyme Activity (relative to DMSO controls) (TRKA; TRKA, 10uM, ATP 100 uM, Data 1, Data 2): 96.8%; remaining activity at 10 µM (TRKA; TRKA, 10uM, ATP 100 uM, Data 1, Data 2, read-out: % Enzyme Activity (relative to DMSO controls)): 100%; % Enzyme Activity (relative to DMSO controls) (LCK; LCK, 10uM, ATP 15 uM, Data 1, Data 2): 102.22%; remaining activity at 10 µM (LCK; LCK, 10uM, ATP 15 uM, Data 1, Data 2, read-out: % Enzyme Activity (relative to DMSO controls)): 111%; % Enzyme Activity (relative to DMSO controls) (YES/YES1; YES/YES1, 10uM, ATP 50 uM, Data 1, Data 2): 96.18%; remaining activity at 10 µM (YES/YES1; YES/YES1, 10uM, ATP 50 uM, Data 1, Data 2, read-out: % Enzyme Activity (relative to DMSO controls)): 102% |
| CC(C)c1cc(-c2n[nH]c(=O)n2-c2ccc3c(ccn3C)c2)c(O)cc1O [Ganetespib] |  |  |  |  |  |  |  |  | 95.5% | 33.8% | 103% | 7.29 |  |
